Measurements: ChEMBL document CHEMBL1201862, “PubChem BioAssay data set” (2004)
The source made the active and inactive calls.

Legend:
[1] = target: T1, Heat shock factor protein 1 (Mus musculus, UniProt P38532); assay: HSF1 potentiators in luciferase reporter cells, confirmation, cell-based, NIH3T3, luminescence, dose retest (AID 435004); format: functional;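 also: stress induced by proteasome inhibitor MG132 added 30 min after compound; luciferase reporter driven by HSF1 response element in NIH3T3 cells; actives raise luminescence as potentiators of the MG132 stress response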
T1 sequence (P38532 whole entry): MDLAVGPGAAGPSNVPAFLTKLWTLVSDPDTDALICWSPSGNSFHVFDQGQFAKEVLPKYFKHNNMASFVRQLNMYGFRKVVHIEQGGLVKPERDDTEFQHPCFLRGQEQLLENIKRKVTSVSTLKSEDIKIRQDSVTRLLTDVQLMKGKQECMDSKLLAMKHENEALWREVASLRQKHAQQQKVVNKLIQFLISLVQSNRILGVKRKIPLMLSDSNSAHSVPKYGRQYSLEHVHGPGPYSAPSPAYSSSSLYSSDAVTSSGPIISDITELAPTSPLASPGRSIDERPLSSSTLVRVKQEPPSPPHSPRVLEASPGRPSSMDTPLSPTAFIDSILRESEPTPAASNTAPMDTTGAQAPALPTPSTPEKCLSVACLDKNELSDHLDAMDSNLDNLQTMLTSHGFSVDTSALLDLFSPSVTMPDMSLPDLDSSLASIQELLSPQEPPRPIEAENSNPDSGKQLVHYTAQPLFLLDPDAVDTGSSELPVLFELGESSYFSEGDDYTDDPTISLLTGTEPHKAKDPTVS

[2] = system: BJ; assay: cytotoxicity toward BJ-TERT fibroblasts, dose response, cell-based, RAS-independent, luminescence (AID 1933); format: functional; conditions: Homo sapiens
[3] = system: BJ; assay: cells; format: functional, cell-based; conditions: Homo sapiens
[4] = system: BJ; assay: cytotoxicity toward BJ-TERT-LT-ST fibroblasts, dose response, cell-based, RAS-independent, luminescence (AID 1935); format: functional; conditions: Homo sapiens;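 also: BJ fibroblasts immortalized with TERT plus LT and ST oncogenes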
[5] = cytotoxicity toward DRD oncogenic fibroblasts, dose response, cell-based, non-viral oncogenic, luminescence (AID 1934); format: functional; conditions: Homo sapiens
[6] = Luminescence Cell-Based Dose Confirmation HTS to Identify Activators of 5'UTR Stem-Loop Driven Alpha-Synuclein mRNA Translation in H4 Neuroglioblastoma Cells. [Related pubchem assays: 1829 (Project Summary), 1814 (Primary HTS)]; format: functional
[7] = Luminescence Cell-Based Dose Response HTS to Identify Activators of Luciferase Translation or Activity in H4 […] Cells. [Related pubchem assays: 1829 (Project Summary), 1814 (Primary HTS)]; format: functional
[8] = system: H4; assay: Luminescence Cell-Based Dose Response HTS to Identify Activators of 5'UTR Stem-Loop Driven Prion Protein mRNA Translation in H4 Neuroglioblastoma Cells. [Related pubchem assays: 1829 (Project Summary), 1814 (Primary HTS)]; format: functional; conditions: Homo sapiens
[9] = target: T2, Calpain-2 catalytic subunit (Sus scrofa, UniProt P43367); assay: pig calpain II inhibitor potency, dose response, biochemical, fluorogenic peptide substrate (AID 1420); format: functional
T2 sequence (P43367 whole entry): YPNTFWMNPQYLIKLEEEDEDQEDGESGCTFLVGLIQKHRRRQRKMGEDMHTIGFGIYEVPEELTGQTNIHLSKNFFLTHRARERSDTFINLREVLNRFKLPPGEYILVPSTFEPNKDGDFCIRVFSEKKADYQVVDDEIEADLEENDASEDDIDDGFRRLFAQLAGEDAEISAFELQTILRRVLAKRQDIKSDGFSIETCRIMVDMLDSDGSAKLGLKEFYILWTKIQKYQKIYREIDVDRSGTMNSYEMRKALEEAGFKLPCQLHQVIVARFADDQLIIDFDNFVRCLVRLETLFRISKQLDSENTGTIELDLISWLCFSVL

[10] = system: H9c2; assay: cells; format: functional, cell-based; conditions: Rattus norvegicus, H9c2, Myocardium;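 also: confirmatory concentration-response retest of ultra-high-throughput screening hits for modulation of myocardial damage; cell death induced by hydrogen peroxide oxidative stress; compound pretreatment for 60 min then peroxide exposure for 2 h; potency is for protecting the cells against peroxide damage rather than for killing them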
[11] = target: T3, Short transient receptor potential channel 4 (Mus musculus, UniProt Q9QUQ5); assay: mouse TRPC4 channel inhibitors, dose response, cell-based, HEK293 TRPC4/mu-opioid, Fluo-4 calcium (AID 434942); format: functional;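 also: potency of inhibitors blocking the TRPC4 calcium response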
T3 sequence (Q9QUQ5 whole entry): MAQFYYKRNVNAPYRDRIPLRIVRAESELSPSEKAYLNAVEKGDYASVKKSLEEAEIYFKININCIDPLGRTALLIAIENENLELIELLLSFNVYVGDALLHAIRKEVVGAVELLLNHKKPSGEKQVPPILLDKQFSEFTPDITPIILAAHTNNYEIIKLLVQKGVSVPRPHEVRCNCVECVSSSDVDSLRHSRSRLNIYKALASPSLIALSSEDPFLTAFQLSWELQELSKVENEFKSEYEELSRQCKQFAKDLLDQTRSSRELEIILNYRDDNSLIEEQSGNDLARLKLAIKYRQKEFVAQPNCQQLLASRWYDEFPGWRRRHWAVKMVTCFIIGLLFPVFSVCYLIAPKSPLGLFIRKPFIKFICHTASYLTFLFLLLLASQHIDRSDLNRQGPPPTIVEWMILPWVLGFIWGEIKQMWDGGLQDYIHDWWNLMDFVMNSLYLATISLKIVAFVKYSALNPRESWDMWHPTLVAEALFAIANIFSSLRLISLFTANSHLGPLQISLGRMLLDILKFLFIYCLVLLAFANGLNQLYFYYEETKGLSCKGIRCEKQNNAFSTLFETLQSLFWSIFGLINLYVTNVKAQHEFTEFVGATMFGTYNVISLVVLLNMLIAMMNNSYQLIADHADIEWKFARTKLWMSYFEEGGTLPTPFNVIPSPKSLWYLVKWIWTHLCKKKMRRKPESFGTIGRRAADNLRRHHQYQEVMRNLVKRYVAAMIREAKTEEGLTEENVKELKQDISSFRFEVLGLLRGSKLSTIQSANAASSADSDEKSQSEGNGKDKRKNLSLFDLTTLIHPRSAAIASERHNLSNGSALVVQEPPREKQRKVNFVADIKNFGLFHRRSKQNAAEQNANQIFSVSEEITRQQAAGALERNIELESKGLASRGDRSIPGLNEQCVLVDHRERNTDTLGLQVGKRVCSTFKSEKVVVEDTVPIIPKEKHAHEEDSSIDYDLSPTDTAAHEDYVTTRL

[12] = target: FAD-linked sulfhydryl oxidase ALR (Homo sapiens, UniProt P55789); assay: inhibitors of human ALR sulfhydryl oxidase, dose response, biochemical, H2O2 detection, luminescence, cherry-pick (AID 493248)
[13] = Shn3 3'UTR reporter inhibitors, dose response, cell-based, Clone20 osteoblasts, firefly luciferase, cherry-picked (AID 624132); format: functional;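 also: firefly luciferase luminescence from reporter carrying the Shn3 3'UTR in osteoblasts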
[14] = HepG2 cell cytotoxicity, dose response, cytotoxicity control for Shn3 inhibitor project, CellTiter-Glo, cherry-picked (AID 624134); format: functional, cell-based
[15] = control 3'UTR Renilla luciferase suppression, dose response, counter-screen for Shn3 inhibitor project, cell-based, Clone20-Shn3RL, cherry-picked (AID 624133); format: functional
[16] = target: Induced myeloid leukemia cell differentiation protein Mcl-1 (Homo sapiens, UniProt Q07820); format: functional
[17] = target: T4, Ubiquitin-conjugating enzyme E2 N (Homo sapiens, UniProt P61088); format: functional;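 also: Dose-response confirmation in a TR-FRET assay detecting UBC13-driven polyubiquitin chain formation, inhibition measured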
T4 sequence (P61088 whole entry): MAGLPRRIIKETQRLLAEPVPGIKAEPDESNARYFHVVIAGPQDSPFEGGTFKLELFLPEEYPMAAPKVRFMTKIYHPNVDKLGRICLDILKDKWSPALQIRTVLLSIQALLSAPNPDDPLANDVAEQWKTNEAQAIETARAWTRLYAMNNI

[18] = target: Cytochrome P450 2C19 (Homo sapiens, UniProt P33261); assay: Cytochrome panel assay with activity outcomes. Panel member name: p450-cyp2c19 Compounds with AC50 equal or less than 10 uM are considered active; format: functional; conditions: read-out: AC50
[19] = target: Cytochrome P450 2D6 (Homo sapiens, UniProt P10635);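 also: CYP2D6 member of a cytochrome P450 panel assay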
[20] = target: Cytochrome P450 2C9 (Homo sapiens, UniProt P11712)
[21] = target: T5, Rac GTPase-activating protein 1 (Homo sapiens, UniProt Q9H0H5); assay: MgcRacGAP GTPase-activating activity inhibitors, confirmation, biochemical, ADP Hunter fluorescence, primary and confirmatory (AID 624330); format: functional
T5 sequence (Q9H0H5 whole entry): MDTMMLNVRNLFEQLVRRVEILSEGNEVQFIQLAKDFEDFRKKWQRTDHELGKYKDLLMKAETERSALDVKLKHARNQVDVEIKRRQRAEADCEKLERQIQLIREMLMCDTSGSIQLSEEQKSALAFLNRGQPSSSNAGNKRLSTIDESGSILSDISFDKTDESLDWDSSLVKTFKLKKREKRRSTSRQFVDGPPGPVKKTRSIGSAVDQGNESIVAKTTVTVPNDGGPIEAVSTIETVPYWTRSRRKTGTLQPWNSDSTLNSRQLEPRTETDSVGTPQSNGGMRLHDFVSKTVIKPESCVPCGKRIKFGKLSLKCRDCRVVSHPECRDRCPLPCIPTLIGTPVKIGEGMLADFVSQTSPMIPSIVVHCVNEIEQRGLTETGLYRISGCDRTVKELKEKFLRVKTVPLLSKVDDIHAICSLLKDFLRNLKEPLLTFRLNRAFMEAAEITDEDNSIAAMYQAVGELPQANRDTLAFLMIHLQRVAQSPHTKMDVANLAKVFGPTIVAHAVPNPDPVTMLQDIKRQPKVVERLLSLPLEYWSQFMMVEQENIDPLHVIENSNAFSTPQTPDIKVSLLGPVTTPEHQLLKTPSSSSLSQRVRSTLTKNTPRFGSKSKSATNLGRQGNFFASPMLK

[22] = target: Large T antigen (Simian virus 40, UniProt P03070); format: functional, Betapolyomavirus macacae;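 also: Confirmatory-stage PubChem screen for compounds that inhibit SV40 T antigen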
Sequence of Large T antigen (P03070 whole entry): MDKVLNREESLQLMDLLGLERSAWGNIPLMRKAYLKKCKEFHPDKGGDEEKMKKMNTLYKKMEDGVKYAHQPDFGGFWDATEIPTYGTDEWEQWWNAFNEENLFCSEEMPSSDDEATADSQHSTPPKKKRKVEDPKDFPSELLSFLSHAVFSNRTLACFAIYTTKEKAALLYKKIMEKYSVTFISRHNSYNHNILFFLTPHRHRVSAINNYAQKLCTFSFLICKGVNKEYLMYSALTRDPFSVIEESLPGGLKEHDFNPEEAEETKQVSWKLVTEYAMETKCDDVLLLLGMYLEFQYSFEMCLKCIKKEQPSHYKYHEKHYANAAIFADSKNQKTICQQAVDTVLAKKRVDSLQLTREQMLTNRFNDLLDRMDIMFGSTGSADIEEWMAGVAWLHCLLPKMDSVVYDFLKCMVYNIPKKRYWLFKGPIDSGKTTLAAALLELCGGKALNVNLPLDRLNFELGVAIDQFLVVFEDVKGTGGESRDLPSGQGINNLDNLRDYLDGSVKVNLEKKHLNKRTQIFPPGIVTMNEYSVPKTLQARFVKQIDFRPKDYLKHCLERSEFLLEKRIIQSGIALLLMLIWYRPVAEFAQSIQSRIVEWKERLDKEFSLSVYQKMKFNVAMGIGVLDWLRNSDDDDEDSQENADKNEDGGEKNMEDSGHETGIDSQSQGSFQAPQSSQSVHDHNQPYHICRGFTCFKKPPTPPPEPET

Sequence of Induced myeloid leukemia cell differentiation protein Mcl-1 (Q07820 whole entry): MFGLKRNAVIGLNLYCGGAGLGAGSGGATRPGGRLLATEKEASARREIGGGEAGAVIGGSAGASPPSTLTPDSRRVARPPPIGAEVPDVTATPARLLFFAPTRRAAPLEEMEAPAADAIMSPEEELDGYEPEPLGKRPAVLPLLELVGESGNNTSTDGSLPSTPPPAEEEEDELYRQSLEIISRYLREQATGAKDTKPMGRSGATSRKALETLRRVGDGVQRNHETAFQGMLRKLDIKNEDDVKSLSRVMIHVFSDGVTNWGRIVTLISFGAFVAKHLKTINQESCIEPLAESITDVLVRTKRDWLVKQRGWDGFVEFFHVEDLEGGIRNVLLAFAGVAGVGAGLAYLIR
Sequence of Cytochrome P450 2C9 (P11712 whole entry): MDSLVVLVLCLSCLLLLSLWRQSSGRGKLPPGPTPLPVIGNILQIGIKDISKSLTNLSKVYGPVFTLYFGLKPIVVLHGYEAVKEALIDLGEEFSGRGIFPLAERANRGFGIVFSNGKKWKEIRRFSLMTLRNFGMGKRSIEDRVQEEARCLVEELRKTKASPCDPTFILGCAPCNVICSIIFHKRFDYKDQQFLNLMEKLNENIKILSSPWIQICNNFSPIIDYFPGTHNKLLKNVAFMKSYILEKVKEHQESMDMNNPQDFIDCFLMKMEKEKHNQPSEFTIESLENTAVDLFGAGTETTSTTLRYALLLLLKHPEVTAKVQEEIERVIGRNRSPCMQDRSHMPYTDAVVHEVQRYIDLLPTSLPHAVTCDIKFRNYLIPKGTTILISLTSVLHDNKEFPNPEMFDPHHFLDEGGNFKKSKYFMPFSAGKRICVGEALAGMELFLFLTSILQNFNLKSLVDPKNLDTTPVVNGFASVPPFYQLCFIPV
Sequence of Cytochrome P450 2C19 (P33261 whole entry): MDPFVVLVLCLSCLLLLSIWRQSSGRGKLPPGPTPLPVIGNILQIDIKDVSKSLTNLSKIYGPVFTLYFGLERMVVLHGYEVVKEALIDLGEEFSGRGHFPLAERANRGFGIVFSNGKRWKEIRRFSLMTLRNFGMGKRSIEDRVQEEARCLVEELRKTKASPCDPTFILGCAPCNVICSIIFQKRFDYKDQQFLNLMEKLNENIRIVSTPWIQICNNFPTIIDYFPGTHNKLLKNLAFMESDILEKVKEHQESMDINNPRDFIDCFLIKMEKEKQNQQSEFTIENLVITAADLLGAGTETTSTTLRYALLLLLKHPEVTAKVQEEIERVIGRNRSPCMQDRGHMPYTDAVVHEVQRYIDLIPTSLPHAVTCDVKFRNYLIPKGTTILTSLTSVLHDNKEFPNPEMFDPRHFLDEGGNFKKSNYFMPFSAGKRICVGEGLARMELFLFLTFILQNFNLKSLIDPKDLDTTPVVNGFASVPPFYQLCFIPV
Sequence of Cytochrome P450 2D6 (P10635 whole entry): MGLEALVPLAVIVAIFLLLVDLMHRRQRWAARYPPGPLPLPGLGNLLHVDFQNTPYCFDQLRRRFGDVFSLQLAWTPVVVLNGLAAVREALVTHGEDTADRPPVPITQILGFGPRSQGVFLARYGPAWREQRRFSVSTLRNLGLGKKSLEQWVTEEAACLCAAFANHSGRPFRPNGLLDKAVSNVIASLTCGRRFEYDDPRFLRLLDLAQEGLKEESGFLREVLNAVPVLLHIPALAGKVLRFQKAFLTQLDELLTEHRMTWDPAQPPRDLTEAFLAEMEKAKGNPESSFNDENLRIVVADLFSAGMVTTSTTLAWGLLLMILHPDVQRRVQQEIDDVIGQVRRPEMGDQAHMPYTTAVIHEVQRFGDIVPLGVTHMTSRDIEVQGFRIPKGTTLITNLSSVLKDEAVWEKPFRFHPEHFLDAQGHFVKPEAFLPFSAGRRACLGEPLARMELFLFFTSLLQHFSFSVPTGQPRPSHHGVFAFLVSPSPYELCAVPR
Sequence of FAD-linked sulfhydryl oxidase ALR (P55789 whole entry): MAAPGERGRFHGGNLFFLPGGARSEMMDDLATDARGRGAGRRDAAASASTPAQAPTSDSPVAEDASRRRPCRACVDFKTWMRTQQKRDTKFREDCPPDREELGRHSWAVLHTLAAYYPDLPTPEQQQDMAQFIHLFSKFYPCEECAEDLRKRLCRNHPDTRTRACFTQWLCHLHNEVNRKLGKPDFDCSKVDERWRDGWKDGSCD

With Cc1ccc(CNC(=O)[C@H](C)N2C(=O)N3CCc4c([nH]c5ccccc45)[C@@]3(C)C2=O)cc1 the EC50 [1] was > 260 µM (inactive).

In the case of Cc1nn2cc(-c3cccc(Cl)c3)cnc2c1Br, the EC50 [2] is reported as 17.4 µM (active), the EC50 [3] is reported as 68.2 µM (active) and the EC50 [4] is reported as 20.3 µM (active). For the same compound, the EC50 [5] was 16 µM (active).

In the case of NC(=O)c1ccc(-n2nnnc2Oc2ccccc2C(=O)N2CCOCC2)cc1, the EC50 [6] is reported as 8.06 µM (active), the EC50 [7] is reported as 31.4 µM (inconclusive) and the EC50 [8] is reported as > 120 µM (not active). The IC50 [9] was 3.94 µM (not active).

With COCCCN(Cc1ccco1)C(=O)Cn1ncc2c3ccccc3nc-2c1O the IC50 [10] was > 79 µM (inactive).

In the case of Cc1cccc(C(=O)Nc2sc(-c3ccccc3)cc2C(=O)O)c1, the EC50 [11] is reported as 2.11 µM (active).

With Nc1cc(C(F)(F)F)ccc1Nc1ccccc1 the EC50 [11] was 4.22 µM (active) and the AC50 [12] was 14.6 µM (active).

With Clc1ccccc1CSc1nc2cc[nH]cc-2n1 the EC50 [11] was 2.99 µM (active).

For NS(=O)(=O)c1ccc(CCNCc2cc(Br)ccc2OCc2ccccc2F)cc1, the IC50 [9] was > 50 µM (not active), the AC50 [13] was 4.65 µM (active) and the AC50 [14] was 36.9 µM (active). The AC50 [15] was 8.75 µM (active).

With O=C(Nc1ccc2c(c1)nc1n2CCN(C2CCCCC2)C1)c1ccco1 the IC50 [16] was 6.52 µM (active).

For CCOc1cc(/C=N/NC(N)=O)cc(Br)c1OCC(=O)Nc1cccc2ccccc12, the IC50 [10] was > 79 µM (inactive).

For C#CCOCCOCCOCCNc1nc(N2CCN(C(=O)[C@H](CCCCN)n3cc([C@@H](N)CO)nn3)CC2)nc(N2CCN(C(=O)[C@H](CCCCN)n3cc([C@@H](N)CC(C)C)nn3)CC2)n1, the IC50 [17] was > 20 µM (inactive).

With COc1ccc(N(CC(=O)N/N=C/c2cccs2)S(=O)(=O)c2ccc(OC)c(OC)c2)cc1 the AC50 [18] was 0.0178 µM (inconclusive), the IC50 [10] was > 79 µM (inactive) and the AC50 [19] was 31.6 µM (inconclusive). The AC50 [20] was 4.47 µM (inconclusive).

For Cc1ccc(C)c(N2CCN(CCCNC(=O)CCC(=O)N3CCOc4ccc(Cl)cc43)CC2)c1, the IC50 [17] was > 20 µM (inactive).

In the case of CN(CC(=O)Nc1ccc(F)cc1)C(=O)CCc1nc(O)c2ccccc2n1, the IC50 [10] is reported as > 79 µM (inactive).

With COc1ccc(CN2CCN(Cc3ccccc3F)CC2)c(OC)c1 the EC50 [11] was 4.22 µM (active) and the IC50 [21] was 70.3 µM (active).

In the case of COc1cc(C(=O)Nc2ccc(C)cc2)c2ccccc2n1, the EC50 [2] is reported as 1.15 µM (inconclusive), the EC50 [3] is reported as 22.9 µM (active) and the EC50 [4] is reported as 12.8 µM (inconclusive). The EC50 [5] was 0.707 µM (inconclusive).

For Cc1cccc(NC2=NC(=O)/C(=C/C=C/c3ccco3)S2)c1, the IC50 [16] was 11.4 µM (active).

In the case of CC(C)Cn1c(N)c(C(=O)COC(=O)CCc2nc(O)c3ccccc3n2)c(=O)n(C)c1=O, the IC50 [10] is reported as > 79 µM (inactive).

In the case of COc1ccc(/C=C/C(=O)Oc2cc(O)cc(O)c2)cc1, the EC50 [11] is reported as 3.76 µM (active).

With CCn1c(NCc2c[nH]c3ccccc23)nc2ccccc21 the EC50 [11] was 3.35 µM (active).

In the case of Cc1cc(C)cc(OCC(=O)Nc2cccc(-c3nc4ncccc4o3)c2)c1, the IC50 [10] is reported as > 79 µM (inactive).

For O=c1c2ccccc2sc2nc(C3CCCCC3)n(Cc3ccco3)c(=O)c12, the EC50 [1] was 47.8 µM (active).

With CN=C(S)N1CCN(C(c2ccccc2)c2ccccc2)CC1 the EC50 [11] was 8.41 µM (active).

With COc1cc(/C=N\Nc2nc(-c3cccs3)c(NC(C)=O)s2)ccc1O the IC50 [22] was 27.8 µM (active) and the IC50 [16] was 2.72 µM (active).

With C=CC[C@@H]1Cc2c(Br)ccc(Br)c2[C@@H](CC=C)N1 the EC50 [1] was > 260 µM (inactive).

For COc1ccc(-c2cc(C(=O)N(C)Cc3ccc(OC)c(OC)c3OC)c3ccccc3n2)cc1OC, the IC50 [10] was > 79 µM (inactive).

For COC(=O)c1cc(S(=O)(=O)C(C)C)c([S+](C)[O-])s1 (stereo not drawn), the EC50 [1] was 93.8 µM (active).

With CCC(C)[C@H](Nc1nc(-c2ccccc2)nc2c1oc1ccccc12)C(=O)O (stereo partly drawn) the EC50 [11] was 7.5 µM (active).

With Cc1cn(Cc2ccccc2Cn2cc(C)c(=O)[nH]c2=O)c(=O)[nH]c1=O the EC50 [1] was > 260 µM (inactive).

For Oc1nc2cccc(Cl)c2c2ccccc12, the IC50 [10] was 39.6 µM (inactive).
